Each block holds one compound with its values, some of them ahead of it.
What was measured:
SRSF protein kinase 1 = SRSF protein kinase 1 (Homo sapiens, UniProt Q96SB4); assay: Selectivity interaction (ActivX KiNativ screen (kinase selectivity in THP-1 cell lysates)) EUB0000639a SRPK1; assay type: subcellular; settings: lysate, at 0.2 µM
[1] = target: T1, Histone-lysine N-methyltransferase SETD7 (Homo sapiens) (UniProt Q8WTS6); assay: Selectivity interaction (Transferase panel (protein, RNA, and DNA methyltransferases. and EP300 (acetyltransferase))) EUB0000270b SETD7
T1 sequence (whole entry): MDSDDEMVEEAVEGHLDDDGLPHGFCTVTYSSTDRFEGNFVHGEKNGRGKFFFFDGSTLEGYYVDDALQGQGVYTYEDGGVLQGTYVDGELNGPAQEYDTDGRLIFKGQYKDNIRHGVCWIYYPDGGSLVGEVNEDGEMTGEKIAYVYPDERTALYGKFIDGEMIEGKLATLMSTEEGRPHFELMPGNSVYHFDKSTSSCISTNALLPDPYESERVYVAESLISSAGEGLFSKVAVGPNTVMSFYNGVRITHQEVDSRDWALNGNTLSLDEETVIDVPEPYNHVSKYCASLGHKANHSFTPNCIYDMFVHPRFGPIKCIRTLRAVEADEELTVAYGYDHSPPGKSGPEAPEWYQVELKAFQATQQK

[2] = target: Tyrosine-protein kinase Fgr (Homo sapiens) (UniProt P09769); assay: Selectivity interaction (KinomeScan (DiscoverX)) EUB0000229b FGR; settings: at 10 µM
[3] = target: Sodium-dependent dopamine transporter (Homo sapiens, UniProt Q01959); assay: Selectivity interaction (GPCR panel (PDSP screen)) EUB0001079a SLC6A3; settings: at 10 µM
Chain of Sodium-dependent dopamine transporter (Q01959 whole entry): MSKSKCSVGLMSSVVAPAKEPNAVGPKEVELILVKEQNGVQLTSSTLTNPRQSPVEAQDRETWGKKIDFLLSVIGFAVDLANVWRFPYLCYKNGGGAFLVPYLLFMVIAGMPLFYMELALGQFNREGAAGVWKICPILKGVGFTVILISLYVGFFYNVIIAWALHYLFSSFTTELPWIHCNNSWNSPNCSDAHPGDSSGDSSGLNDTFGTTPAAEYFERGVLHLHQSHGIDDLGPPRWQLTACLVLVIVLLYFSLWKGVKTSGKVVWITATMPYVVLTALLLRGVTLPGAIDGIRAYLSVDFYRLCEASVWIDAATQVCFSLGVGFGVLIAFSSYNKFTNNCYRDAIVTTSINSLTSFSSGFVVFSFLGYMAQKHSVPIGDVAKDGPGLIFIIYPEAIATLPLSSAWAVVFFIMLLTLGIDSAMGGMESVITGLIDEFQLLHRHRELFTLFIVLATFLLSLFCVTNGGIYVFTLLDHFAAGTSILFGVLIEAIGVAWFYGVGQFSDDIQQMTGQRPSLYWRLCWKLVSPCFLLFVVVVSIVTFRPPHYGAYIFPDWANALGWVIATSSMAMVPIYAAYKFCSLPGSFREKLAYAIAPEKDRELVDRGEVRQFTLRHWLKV

[4] = target: T2, Serine/threonine-protein kinase TAO1 (Homo sapiens) (UniProt Q7L7X3); assay: Selectivity interaction (KinomeScan (DiscoverX)) EUB0000092b TAOK1; settings: at 10 µM
T2 sequence (whole entry): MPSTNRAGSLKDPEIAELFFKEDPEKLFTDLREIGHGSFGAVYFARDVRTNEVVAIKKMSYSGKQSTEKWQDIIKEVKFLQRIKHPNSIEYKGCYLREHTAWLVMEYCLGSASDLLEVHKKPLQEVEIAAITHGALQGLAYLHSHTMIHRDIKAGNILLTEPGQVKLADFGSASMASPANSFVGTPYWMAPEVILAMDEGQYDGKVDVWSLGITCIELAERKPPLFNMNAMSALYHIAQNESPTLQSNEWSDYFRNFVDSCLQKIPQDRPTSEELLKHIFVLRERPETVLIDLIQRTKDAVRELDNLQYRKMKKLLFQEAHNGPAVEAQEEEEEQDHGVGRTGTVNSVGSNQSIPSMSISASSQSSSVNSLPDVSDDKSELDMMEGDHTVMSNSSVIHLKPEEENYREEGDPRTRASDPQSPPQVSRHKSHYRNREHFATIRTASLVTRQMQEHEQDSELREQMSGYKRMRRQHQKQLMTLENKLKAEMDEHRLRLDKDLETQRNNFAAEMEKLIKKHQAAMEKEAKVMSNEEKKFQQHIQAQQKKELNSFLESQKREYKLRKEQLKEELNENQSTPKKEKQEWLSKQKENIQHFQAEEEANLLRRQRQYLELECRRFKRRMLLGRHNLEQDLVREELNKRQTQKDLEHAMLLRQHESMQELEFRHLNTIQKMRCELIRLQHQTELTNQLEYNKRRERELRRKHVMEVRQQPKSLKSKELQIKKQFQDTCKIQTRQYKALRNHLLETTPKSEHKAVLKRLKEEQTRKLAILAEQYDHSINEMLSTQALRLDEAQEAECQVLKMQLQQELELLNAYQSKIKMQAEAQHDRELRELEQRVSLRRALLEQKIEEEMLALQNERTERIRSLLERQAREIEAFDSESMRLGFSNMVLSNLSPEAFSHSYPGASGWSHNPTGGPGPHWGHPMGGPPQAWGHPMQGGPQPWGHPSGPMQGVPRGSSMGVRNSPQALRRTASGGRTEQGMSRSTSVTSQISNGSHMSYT

[5] = target: BMP-2-inducible protein kinase (Homo sapiens) (UniProt Q9NSY1); assay: Selectivity interaction (KinomeScan (DiscoverX)) EUB0000655a BMP2K; settings: at 10 µM
Chain of BMP-2-inducible protein kinase (Homo sapiens) (Q9NSY1 whole entry, looked up): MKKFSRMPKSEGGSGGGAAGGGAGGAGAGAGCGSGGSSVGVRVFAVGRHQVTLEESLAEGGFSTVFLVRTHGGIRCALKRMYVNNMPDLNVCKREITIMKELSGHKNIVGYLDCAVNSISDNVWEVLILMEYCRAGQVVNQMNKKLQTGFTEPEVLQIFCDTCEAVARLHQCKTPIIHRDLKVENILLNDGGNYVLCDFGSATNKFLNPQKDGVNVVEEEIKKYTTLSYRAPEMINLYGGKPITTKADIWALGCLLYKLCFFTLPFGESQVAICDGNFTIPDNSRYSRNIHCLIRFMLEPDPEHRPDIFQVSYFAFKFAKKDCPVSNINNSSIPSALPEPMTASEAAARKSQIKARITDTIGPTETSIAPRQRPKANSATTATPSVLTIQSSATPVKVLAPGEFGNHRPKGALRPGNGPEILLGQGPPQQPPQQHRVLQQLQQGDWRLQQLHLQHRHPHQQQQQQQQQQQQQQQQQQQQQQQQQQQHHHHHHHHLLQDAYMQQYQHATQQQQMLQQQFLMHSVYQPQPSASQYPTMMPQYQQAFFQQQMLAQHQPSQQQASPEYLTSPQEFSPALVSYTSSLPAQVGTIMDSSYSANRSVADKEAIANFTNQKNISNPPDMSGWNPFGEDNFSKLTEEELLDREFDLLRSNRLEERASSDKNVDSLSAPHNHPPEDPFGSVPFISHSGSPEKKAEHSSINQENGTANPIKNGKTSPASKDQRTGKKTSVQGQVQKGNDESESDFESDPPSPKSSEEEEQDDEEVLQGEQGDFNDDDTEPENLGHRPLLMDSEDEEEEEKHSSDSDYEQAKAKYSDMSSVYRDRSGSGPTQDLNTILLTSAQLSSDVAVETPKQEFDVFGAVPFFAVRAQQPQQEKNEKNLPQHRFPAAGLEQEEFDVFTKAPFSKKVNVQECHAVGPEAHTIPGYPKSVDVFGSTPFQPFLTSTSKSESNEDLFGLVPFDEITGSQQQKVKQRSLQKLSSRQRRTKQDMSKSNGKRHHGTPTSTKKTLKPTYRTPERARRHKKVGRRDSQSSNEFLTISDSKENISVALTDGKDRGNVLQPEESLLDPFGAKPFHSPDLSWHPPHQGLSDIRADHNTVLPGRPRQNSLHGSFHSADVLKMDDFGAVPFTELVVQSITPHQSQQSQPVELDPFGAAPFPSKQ

[6] = target: T3, Tyrosine-protein kinase ITK/TSK (Homo sapiens) (UniProt Q08881); assay: Selectivity interaction (KinomeScan (DiscoverX)) EUB0000655a ITK; settings: at 10 µM
T3 sequence (whole entry): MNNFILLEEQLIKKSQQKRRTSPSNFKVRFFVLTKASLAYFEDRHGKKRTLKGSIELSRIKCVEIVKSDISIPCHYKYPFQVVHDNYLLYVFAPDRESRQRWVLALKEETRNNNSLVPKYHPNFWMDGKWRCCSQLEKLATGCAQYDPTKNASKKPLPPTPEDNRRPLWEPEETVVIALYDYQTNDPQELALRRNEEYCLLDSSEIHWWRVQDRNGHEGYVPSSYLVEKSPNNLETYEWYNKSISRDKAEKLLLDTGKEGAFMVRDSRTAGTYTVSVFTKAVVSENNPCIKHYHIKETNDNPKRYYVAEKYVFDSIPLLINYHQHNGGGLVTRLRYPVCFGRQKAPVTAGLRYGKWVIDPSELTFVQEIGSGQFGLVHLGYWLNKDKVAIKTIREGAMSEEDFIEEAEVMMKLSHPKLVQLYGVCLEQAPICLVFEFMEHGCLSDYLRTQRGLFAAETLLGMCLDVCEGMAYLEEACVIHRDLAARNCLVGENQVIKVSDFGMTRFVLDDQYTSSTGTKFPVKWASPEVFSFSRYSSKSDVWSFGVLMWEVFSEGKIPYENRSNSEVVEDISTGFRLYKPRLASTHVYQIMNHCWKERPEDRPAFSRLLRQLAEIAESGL

[7] = target: Tyrosine-protein kinase JAK1 (Homo sapiens, UniProt P23458); assay: Selectivity interaction (ActivX KiNativ screen (ex vivo kinase selectivity in human PBMCs)) EUB0001619a JAK1; assay type: cell-based; settings: PBMC, at 1 µM
Chain of Tyrosine-protein kinase JAK1 (P23458 whole entry): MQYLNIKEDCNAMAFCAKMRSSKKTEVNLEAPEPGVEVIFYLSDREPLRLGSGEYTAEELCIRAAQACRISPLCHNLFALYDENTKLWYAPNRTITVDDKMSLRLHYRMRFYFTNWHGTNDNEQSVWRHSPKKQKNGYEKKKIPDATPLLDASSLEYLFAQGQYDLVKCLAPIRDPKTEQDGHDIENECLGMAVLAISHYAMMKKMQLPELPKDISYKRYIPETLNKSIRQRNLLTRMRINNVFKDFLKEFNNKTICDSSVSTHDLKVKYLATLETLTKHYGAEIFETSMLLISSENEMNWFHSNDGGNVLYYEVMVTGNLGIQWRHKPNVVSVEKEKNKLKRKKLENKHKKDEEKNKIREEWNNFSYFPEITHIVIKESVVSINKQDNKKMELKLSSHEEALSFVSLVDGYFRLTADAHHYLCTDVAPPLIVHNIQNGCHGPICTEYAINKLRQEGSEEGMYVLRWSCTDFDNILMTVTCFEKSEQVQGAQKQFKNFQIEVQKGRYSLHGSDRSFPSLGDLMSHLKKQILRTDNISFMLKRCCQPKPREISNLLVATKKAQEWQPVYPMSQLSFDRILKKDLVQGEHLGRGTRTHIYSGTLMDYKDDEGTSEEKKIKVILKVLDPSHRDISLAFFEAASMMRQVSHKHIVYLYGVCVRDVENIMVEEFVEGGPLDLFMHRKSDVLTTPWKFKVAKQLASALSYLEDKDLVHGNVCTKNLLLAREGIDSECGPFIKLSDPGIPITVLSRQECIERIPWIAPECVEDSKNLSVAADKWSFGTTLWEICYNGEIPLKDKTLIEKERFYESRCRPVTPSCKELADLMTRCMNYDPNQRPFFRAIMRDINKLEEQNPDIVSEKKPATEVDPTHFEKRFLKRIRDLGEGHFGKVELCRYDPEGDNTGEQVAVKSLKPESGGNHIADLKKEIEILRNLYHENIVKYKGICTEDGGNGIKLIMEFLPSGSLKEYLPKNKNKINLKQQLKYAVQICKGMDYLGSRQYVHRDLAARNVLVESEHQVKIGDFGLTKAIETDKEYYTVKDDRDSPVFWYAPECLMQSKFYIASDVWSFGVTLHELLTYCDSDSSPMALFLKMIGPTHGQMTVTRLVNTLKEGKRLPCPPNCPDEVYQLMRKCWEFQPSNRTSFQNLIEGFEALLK

[8] = target: Mitogen-activated protein kinase kinase kinase 9 (Homo sapiens) (UniProt P80192); assay: Selectivity interaction (SelectScreen profiling (Invitrogen)) EUB0000607a MAP3K9; settings: at 2 µM
Chain of Mitogen-activated protein kinase kinase kinase 9 (Homo sapiens) (P80192 whole entry, looked up): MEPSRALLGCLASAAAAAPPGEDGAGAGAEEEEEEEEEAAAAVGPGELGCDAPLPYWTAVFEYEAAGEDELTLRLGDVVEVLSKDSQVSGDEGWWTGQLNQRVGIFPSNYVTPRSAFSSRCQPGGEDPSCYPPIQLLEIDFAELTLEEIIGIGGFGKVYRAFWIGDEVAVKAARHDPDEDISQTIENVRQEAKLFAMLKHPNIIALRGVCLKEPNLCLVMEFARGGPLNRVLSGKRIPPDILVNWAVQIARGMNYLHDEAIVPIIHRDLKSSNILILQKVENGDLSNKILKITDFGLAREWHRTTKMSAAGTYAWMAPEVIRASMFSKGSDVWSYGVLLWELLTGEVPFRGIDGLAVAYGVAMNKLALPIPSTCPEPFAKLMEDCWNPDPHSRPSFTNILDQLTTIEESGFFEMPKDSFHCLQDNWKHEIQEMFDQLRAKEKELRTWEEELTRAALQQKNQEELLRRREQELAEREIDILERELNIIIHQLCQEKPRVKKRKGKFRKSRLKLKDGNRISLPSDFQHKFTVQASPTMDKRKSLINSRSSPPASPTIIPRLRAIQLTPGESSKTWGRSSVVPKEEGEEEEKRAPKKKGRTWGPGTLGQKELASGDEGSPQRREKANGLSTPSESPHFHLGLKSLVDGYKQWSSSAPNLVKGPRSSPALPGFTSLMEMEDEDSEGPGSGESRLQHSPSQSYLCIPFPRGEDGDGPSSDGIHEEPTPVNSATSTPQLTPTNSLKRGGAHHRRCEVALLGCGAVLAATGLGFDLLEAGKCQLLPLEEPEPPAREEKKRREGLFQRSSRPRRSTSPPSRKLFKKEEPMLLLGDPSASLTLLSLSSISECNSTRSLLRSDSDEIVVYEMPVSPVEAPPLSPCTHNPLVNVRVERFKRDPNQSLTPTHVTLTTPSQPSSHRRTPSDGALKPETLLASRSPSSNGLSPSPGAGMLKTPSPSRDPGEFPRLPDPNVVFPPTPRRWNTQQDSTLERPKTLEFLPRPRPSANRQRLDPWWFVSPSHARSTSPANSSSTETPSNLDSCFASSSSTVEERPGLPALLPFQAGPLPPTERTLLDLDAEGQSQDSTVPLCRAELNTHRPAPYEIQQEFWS

[9] = tested on: Tyrosine-protein kinase ABL1 (Homo sapiens), P00519 [E255K]; assay: (§1) Selectivity interaction (KinomeScan (DiscoverX)) EUB0000666a ABL1; settings: at 10 µM
[10] = tested on: Tyrosine-protein kinase ABL1 (Homo sapiens), P00519 [F317I]; assay: as §1; settings: at 10 µM
[11] = tested on: Tyrosine-protein kinase ABL1 (Homo sapiens), P00519 [F317L]; assay: as §1; settings: at 10 µM
[12] = tested on: Tyrosine-protein kinase ABL1 (Homo sapiens), P00519 [H396P]; assay: as §1; settings: at 10 µM
[13] = tested on: Tyrosine-protein kinase ABL1 (Homo sapiens), P00519 [Q252H]; assay: as §1; settings: at 10 µM
[14] = tested on: Tyrosine-protein kinase ABL1 (Homo sapiens), P00519 [T315I]; assay: as §1; settings: at 10 µM
[15] = target: Tyrosine-protein kinase ABL1 (Homo sapiens, UniProt P00519); assay: as §1; settings: at 10 µM
[16] = target: Fibroblast growth factor receptor 2 (Homo sapiens) (UniProt P21802); assay: Selectivity interaction (KinomeScan (DiscoverX)) EUB0000666a FGFR2; settings: at 10 µM

Chain of SRSF protein kinase 1 (Q96SB4 whole entry): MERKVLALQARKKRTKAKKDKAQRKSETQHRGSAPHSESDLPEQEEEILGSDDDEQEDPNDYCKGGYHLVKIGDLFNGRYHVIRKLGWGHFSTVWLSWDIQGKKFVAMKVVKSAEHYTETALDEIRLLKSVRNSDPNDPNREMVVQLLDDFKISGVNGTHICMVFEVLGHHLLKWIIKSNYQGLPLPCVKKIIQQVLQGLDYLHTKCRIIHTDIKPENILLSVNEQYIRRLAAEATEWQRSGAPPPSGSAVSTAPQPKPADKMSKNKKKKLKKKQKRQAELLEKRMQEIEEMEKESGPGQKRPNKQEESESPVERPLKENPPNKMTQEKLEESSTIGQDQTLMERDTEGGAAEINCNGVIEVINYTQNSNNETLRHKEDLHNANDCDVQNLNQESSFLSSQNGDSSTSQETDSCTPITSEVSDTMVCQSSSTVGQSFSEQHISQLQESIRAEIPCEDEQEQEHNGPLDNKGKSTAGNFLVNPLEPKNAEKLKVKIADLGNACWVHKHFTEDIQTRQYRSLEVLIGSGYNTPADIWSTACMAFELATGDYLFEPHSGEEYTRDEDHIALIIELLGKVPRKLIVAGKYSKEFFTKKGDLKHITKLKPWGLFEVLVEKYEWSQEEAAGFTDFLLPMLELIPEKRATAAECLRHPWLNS

- % of inhibition (SRSF protein kinase 1): 0.5%
Compound: CC[C@@H]1[C@H](F)C(=O)N[C@@H]1COc1nccc2cc(C(N)=O)c(OC)cc12 [ZIMLOVISERTIB]

- % activity ([1]; at 1 µM): > 90%
- % activity ([1]; at 10 µM): > 80%
Compound: Cc1cc(CN)cc(C)c1-c1ncn(C)c1-c1cncn1C

Compound: COc1cc(N(C)c2ccnc3ccc(C(F)(F)F)cc23)cc(OC)c1OC
- % binding [2]: 97%

Compound: Nc1cnc(N2CCc3cc(S(=O)(=O)Nc4c(F)cc(Cl)cc4F)cc(N4CCCC4=O)c32)nc1 [TP-020n]
- % of inhibition [3]: 20.2%

Compound: CCC(=O)N1CCN(c2ccc(-n3c(=O)ccc4cnc5ccc(-c6cnc7ccccc7c6)cc5c43)cc2C(F)(F)F)CC1
- % of control [4]: 58%

Compound: CN(C)CCOc1ccc(-c2nc(-c3ccncc3)c(-c3ccc4c(c3)CC/C4=N\O)[nH]2)cc1
- % of control [5]: 82%
- % of control [6]: 98%

Compound: N#Cc1cccc(-c2c[nH]c3ncnc(N4CCOCC4)c23)c1
- % of inhibition [7]: 19%

Compound: CNC(=O)Nc1ccc(-c2nc(N3CC4CCC(C3)O4)c3cnn(C4CCC5(CC4)OCCO5)c3n2)cc1
- % of inhibition [8]: 11%

Compound: O=C(NOC[C@H](O)CO)c1ccc(F)c(F)c1Nc1ccc(I)cc1F
- % of control [9]: 100%
- % of control [10]: 100%
- % of control [11]: 100%
- % of control [12]: 100%
- % of control [13]: 100%
- % of control [14]: 82%
- % of control [15]: 77%
- % of control [16]: 100%
